Data: paper PMC6362038, “Secondary structures and cell-penetrating abilities of arginine-rich peptide foldamers” (Scientific Reports, 2019)
Peptide text beside a SMILES is read from it. * marks the point of attachment. 5FAM = O=C1OC2(c3ccc(O)cc3Oc3cc(O)ccc32)c2ccc(C(=O)*)cc21

What was measured:
HeLa cells [1] = conditions: 24 h incubation; cited from earlier work
Procedure: Cellular uptake of peptides was assessed against HeLa (Fig. 5a) and CHO-K1 cells (Fig. 5b) at a concentration of 1 µM and various incubation times (2, 6, and 24 h). […] Furthermore, the cellular uptake of Ac5c^dOM peptide increased up t ...

[2] = Resistance to protease digestion with pronase; assay type: in vitro ADME, Streptomyces griseus; conditions: 10 µM peptide in 2.5 × 10^−6 w/v% pronase/PBS, 37 °C, RP-HPLC, α-CHCA internal standard, read-out: intact peptide after incubation with pronase
Source text: (§1) Next, we examined the stability of peptides against protease digestion using trypsin (Fig. 4a) and pronase (Fig. 4b). One of the advantages of peptide foldamers containing dAAs is their high resistance to degradation by proteases[38]–[40]. Trypsin is a serine protease that cleaves amide bonds at the C terminus of cationic amino acids such as Arg and lysine. Pronase is a non-specific protease mixture produced in the culture supernatant of Streptomyces griseus. Ac5c, Ac5c^dOM, (αMe)Leu, and Leu peptides were incubated with trypsin or pronase for 1, 2, and 4 h, and then rate of intact peptide was evaluated by RP-HPLC using α-cyano-4-hydroxycinnamic acid (α-CHCA) as an internal standard. Leu peptide was promptly degraded by both trypsin and pronase, and reached 0% intact peptide after 4 h incubation in a similar manner to Arg peptide reported previously[24],[25]. On the other hand, approximately 80% of Ac5c, Ac5c^dOM, and (αMe)Leu peptides remained intact even after 4 h incubation. Introduction of dAAs into peptides markedly elevated resistance to protease digestion, whether or not peptides formed stable helical structures. In other words, peptides composed of only natural α-amino acids were easily degraded by proteases independently of their peptide secondary structures.
(§2) One-hundred microliters of peptide solution (10 µM) in 2.5 × 10^−6 w/v% trypsin or pronase/phosphate buffer saline (PBS) was incubated at 37 °C for 0, 1, 2, and 4 h. After each incubation time, 250 µL of 1% TFA/PBS solution was added to inactivate the proteases, and 50 µL of 1/2 diluted saturated α-CHCA solution was added as an internal standard, followed by HPLC analysis, which was performed using the above-mentioned conditions.

HeLa cells [3] = assay: Cellular uptake of CF-labeled peptides into HeLa cells (flow cytometry); assay type: cell-based; conditions: 1 µM peptide, 2, 6 and 24 h, DMEM 10% FBS, heparin wash, trypsinized, flow cytometry fluorescence, mean of n = 3
Procedure: Cellular uptake of peptides was assessed against HeLa (Fig. 5a) and CHO-K1 cells (Fig. 5b) at a concentration of 1 µM and various incubation times (2, 6, and 24 h). […] Not only stabilities against protease digestion but also other factors might contribute to prolongation of the cell-penetrating ability of peptides. […] The number of Arg residues in Arg-rich peptides is very important for their cell-penetrating ability, and six Arg are not enough. […] Substitution of Arg in Arg peptide with Ac5c, Ac5c^dOM, or (αMe)Leu positively affected its cell-penetrating ability compared with Aib. In comparison, among the peptides containing dAAs, (αMe)Leu peptide was the best for HeLa cell, Ac5c peptide was the best for CHO-K1 cell, and Ac5c^dOM peptide was the worst for both cell types (Fig. 5). Although the best peptides were different depending on cell type, the worst peptide was same for both cell types. […] Taken together, a stable helical structure by introducing dAAs into Arg-rich peptide enhanced their cell-penetrating abilities.
HeLa or CHO-K1 cells were seeded on 24-well culture plates (100,000 cells/well) and incubated in 400 µL of DMEM containing 10% FBS. The medium was then replaced with fresh medium, and a peptide solution was added to each well at a concentration of 1 µM. After each incubation time, the medium was removed and cells were washed with ice-cold PBS with heparin (20 units/mL) and trypsinized. After the addition of medium containing 10% FBS, fluorescence intensity was detected and acquired using an On-chip Flow (On-chip Biotechnologies Co., Ltd, Tokyo, Japan). The results are presented as a mean and standard deviation obtained from 3 samples.

[4] = Circular dichroism, R value of secondary structure; assay type: physicochemical; conditions: CD, peptide 24 µM
Procedure: The conformations of peptides were analyzed by circular dichroism (CD) in pH 7.3 4-(2-hydroxyethyl)-1-piperazineethanesulfonic acid (HEPES) buffer (Fig. 3a), 40% 2,2,2-trifluoroethanol (TFE)/pH 7.3 HEPES buffer (Fig. 3b), and 75% TFE/pH 7.3 HEPES buffer (Fig. 3c). Negative maxima at 205–209 nm (π → π*) and 222–225 nm (n → π*) were diagnostic of a right-handed (P) helical structure[31]–[33]. The ratio of R (θπ → π*/θn → π*) has been used as a parameter to distinguish an α-helical structure from a 3_10-helical structure (i.e., R ≈ 1: α-helix; R < 0.4: 3_10-helix) (Table S1)[34],[35]. Helical content (helicity) of peptides was estimated from the intensity of θn → π* values. A negative maximum at 195–200 nm (π → π*) and a weak positive maximum at 217 nm (n → π*) were diagnostic of a random coil structure. […] By adding TFE to HEPES buffer, (αMe)Leu peptide formed a complete right-handed (P) helical structure in a mixture of α- and 3_10-helices (R = 0.57 and 0.56 in Figs 3b and […], respectively). The dominant structures of Ac5c and Leu peptides changed by increased the rate of TFE to eventually be α-/3_10-helices (R = 0.52) and 3_10-helix (R = 0.30), respectively (Fig. 3c). […] Cbz-[L-Leu-L-Leu-(S,S)-Ac5c^dOM]3-OMe was reported to form a right-handed (P) helical structure in 50% TFE/H2O[37]. L-Leu might contribute to stabilization of the peptide helical secondary structure as well as (S,S)-Ac5c^dOM. Destabilization of the peptide helical secondary structure by L-Arg might be stronger than stabilization of it by (S,S)-Ac5c^dOM. Taken together with the results of CD spectra (Fig. 3), in which helicity of peptides was estimated from the intensity of θn → π* values, stability in the helicity of the peptides in the current study was as follows: (αMe)Leupeptide>Ac5cpeptide≈Leupeptide>Ac5c^dOMpeptide≈Argpeptide.
Figure 3 CD spectra of peptides in (a) HEPES buffer, (b) 40% TFE/HEPES buffer, and (c) 75% TFE/HEPES buffer. Peptide concentration: 24 µM.
Optical rotation [α]^rtD was measured using a Jasco DIP-370 polarimeter (JASCO, Tokyo, Japan) using a 0.5 dm cell. Infrared (IR) spectra were recorded using a Shimadzu IR Affinity-1 spectrometer (Shimadzu Corporation, Kyoto, Japan) for conventional measurement (KBr). CD spectra were recorded using a Jasco J-720W spectropolarimeter (JASCO) with a 1.0 mm path length cell. ^1H NMR (400 MHz) and ^13C NMR (100 MHz) spectra were determined using a JEOL AL 400 spectrometer (JEOL Ltd, Tokyo, Japan). Fast atom bombardment (FAB)-MS was measured using a JEOL JMS-700N (JEOL). MALDI-TOF-MS spectra were recorded using a Bruker Ultrax spectrometer (Bruker Daltonics, Fermont, CA). Piperidine was purchased from Tokyo Chemical Industry Co., Ltd. (Tokyo, Japan). Fmoc-L-Arg(Pbf)-OH, Fmoc-Gly-OH, Fmoc-L-Leu-OH, and CLEAR-Amide resin were purchased from the Peptide Institute., Inc. (Osaka, Japan). Fmoc-(S)-(αMe)Leu-OH was obtained from Nagase & Co., Ltd. (Kyoto, Japan). Fmoc-Ac5c-OH was purchased from Watanabe Chemical Industries, Ltd. (Hiroshima, Japan). HATU, HBTU, HOAt, and HOBt were from AAPPTec (Louisville, KY). COMU was from Novabiochem (Tokyo, Japan). CF and Dulbecco’s modified Eagle’s medium (DMEM) were obtained from Sigma-Aldrich Co. (St. Louis, MO). diisopropylethylamine (DIPEA) and heparin were purchased from Wako Pure Chemicals Co., Inc. (Osaka, Japan). Diethyl ether was from Kanto Chemical Co., Inc. (Tokyo, Japan). Trifluoroacetic acid (TFA) was obtained from Nacalai Tesque, Co., Inc. (Kyoto, Japan). Hoechst 33342 and a Cell counting kit-8 were purchased from Dojindo Laboratories (Kumamoto, Japan). LysoTracker Red was from Molecular Probes (Eugene, OR).
Table S1. R values (qπ → π*/qn → π*) of synthetic peptides.
R value (qπ → π*/qn → π* )
HEPES 40% TFE/HEPES 75% TFE/HEPES

[5] = Resistance to protease digestion with trypsin; assay type: in vitro ADME; conditions: 10 µM peptide in 2.5 × 10^−6 w/v% trypsin/PBS, 37 °C, RP-HPLC, α-CHCA internal standard, read-out: intact peptide after incubation with trypsin
Source text: as §1, §2

| Compound | cell-penetrating ability compared with Arg nonapeptide (HeLa cells [1]) | remaining at 4 h, 10 µM [2] | cellular uptake, course over incubation time (HeLa cells [3]) | R value (θπ → π*/θn → π*) ([4]; 40% TFE/pH 7.3 HEPES buffer) | R value (θπ → π*/θn → π*) ([4]; 75% TFE/pH 7.3 HEPES buffer) | R value (θπ → π*/θn → π*) ([4]; pH 7.3 HEPES buffer, R ≈ 1 α-helix, R < 0.4 3_10-helix) | remaining at 4 h, 10 µM [5] |
| --- | --- | --- | --- | --- | --- | --- | --- |
| (L-Arg-L-Arg-Aib)3 [(L-Arg-L-Arg-Aib)3 nonapeptide] | much lower cell-penetrating ability than Arg nonapeptide |  |  |  |  |  |  |
| CC(C)C[C@H](NC(=O)[C@H](CCCNC(=N)N)NC(=O)[C@H](CCCNC(=N)N)NC(=O)[C@H](CC(C)C)NC(=O)[C@H](CCCNC(=N)N)NC(=O)[C@H](CCCNC(=N)N)NC(=O)[C@H](CC(C)C)NC(=O)[C@H](CCCNC(=N)N)NC(=O)[C@H](CCCNC(=N)N)NC(=O)CNC(=O)c1ccc2c(c1)C(=O)OC21c2ccc(O)cc2Oc2cc(O)ccc21)C(N)=O [Leu peptide] (5FAM-GRRLRRLRRL-NH2) |  | 0% | small decrease | 0.26 | 0.30 | No significant maxima | 0% |
